Legend:
Assay type in all cases: cell-based
[1] = tested on: Human dermal fibroblast (hF); assay: Cytotoxicity test (cell survival), MTT assay, hF; details: 24 hours
Experimental: (§1) 3. Cytotoxicity Test (Cell Survival Test)
(§2) Cytotoxicity was conducted through an MTT assay (Chemicon, Serologicals Corporation, USA) as follows.
(§3) Cells were seeded at a density of 3×10^4 cells/well in 96-well plates (Nunc Do, Denmark).
(§4) When the cells were at a confluence of about 60˜70%, 24 hours after seeding, the media was exchanged for 100 μl of fresh, serum-free media containing various respective concentrations of ALA or ALA-ester, after which the cells were incubated for an additional 24 hours.
(§5) An MTT solution (0.5 mg/mL) was added in an amount of […] to each well, followed by incubation for 4 hours to form formazan crystals. A color-developing solution (isopropanol with 0.04 N HCl) was added in an amount of […] per well to solubilize the formazan crystals.
(§6) The plates were measured for absorbance at 570 nm using an ELISA reader (EMAX, Molecular Device, USA).
(2) Human Dermal Fibroblast (hF)

[2] = tested on: Squamous cell carcinoma (A431); assay: Cytotoxicity test (cell survival), MTT assay, A431; details: 24 hours
Experimental: as §1, §2, §3, §4, §5, §6
(3) Squamous Cell Carcinoma (A431)

[3] = tested on: Human epidermal keratinocyte (HEK); assay: Cytotoxicity test (cell survival), MTT assay, HEK; details: 24 hours; for MTT absorbance (OD): 570 nm; for Cell survival Avg (%) ± SD (%): Table 3
Experimental: as §1, §2, §3, §4, §5, §6
(1) Human Epidermal Keratinocyte (HEK)
Cell survival of the human epidermal keratinocytes treated with ALA esters of the present invention and with ALA was compared. The results are summarized in Tables 1 and 2, which are represented in different manners depending on the measurements.

[4] = tested on: Malignant melanoma (TMX 13); assay: Cytotoxicity test (cell survival), MTT assay, TXM 13; details: 24 hours
Experimental: as §1, §2, §3, §4, §5, §6
(4) Malignant Melanoma (TMX 13)

Compound: C=CCCOC(=O)CCC(=O)CN [ALA-3, 5-Aminolevulinic acid 3-butenyl ester]
- Cell survival Avg (%) ± SD (%) ([1]; 0.01 mM): 114.28 ± 5.4%
- Cell survival Avg (%) ± SD (%) ([1]; 0.05 mM): 126.76 ± 3.88%
- Cell survival Avg (%) ± SD (%) ([1]; 0.1 mM): 115.65 ± 6.85%
- Cell survival Avg (%) ± SD (%) ([1]; 0.5 mM): 110.21 ± 4.21%
- Cell survival Avg (%) ± SD (%) ([1]; 1 mM): 96.59 ± 16.88%
- Cell survival Avg (%) ± SD (%) ([1]; 2 mM): 94.97 ± 9.7%
- Cell survival Avg (%) ± SD (%) ([2]; A431, 0.01 mM): 104.08 ± 0.59%
- Cell survival Avg (%) ± SD (%) ([2]; A431, 0.05 mM): 105.59 ± 0.51%
- Cell survival Avg (%) ± SD (%) ([2]; A431, 0.1 mM): 105.48 ± 0.51%
- Cell survival Avg (%) ± SD (%) ([2]; A431, 0.5 mM): 97.46 ± 3.82%
- Cell survival Avg (%) ± SD (%) ([2]; A431, 1 mM): 97.65 ± 4.75%
- Cell survival Avg (%) ± SD (%) ([2]; A431, 2 mM): 102.85 ± 1.53%
- MTT absorbance (OD) ([3]; 0.01 mM): 2.919 OD
- Cell survival Avg (%) ± SD (%) ([3]; 0.01 mM): 116.69 ± 0.69%
- MTT absorbance (OD) ([3]; 0.05 mM): 3.57 OD
- Cell survival Avg (%) ± SD (%) ([3]; 0.05 mM): 94.01 ± 0.59%
- MTT absorbance (OD) ([3]; 0.1 mM): 3.413 OD
- Cell survival Avg (%) ± SD (%) ([3]; 0.1 mM): 125.58 ± 0.51%
- MTT absorbance (OD) ([3]; 0.5 mM): 2.838 OD
- Cell survival Avg (%) ± SD (%) ([3]; 0.5 mM): 88.14 ± 0.51%
- MTT absorbance (OD) ([3]; 1 mM): 2.592 OD
- Cell survival Avg (%) ± SD (%) ([3]; 1 mM): 72.02 ± 3.82%
- MTT absorbance (OD) ([3]; 2 mM): 2.185 OD
- Cell survival Avg (%) ± SD (%) ([3]; 2 mM): 83.69 ± 4.75%
- MTT absorbance (OD) ([3]; 5 mM): 2.101 OD
- activity at 10 µM ([3]; Homo sapiens, HEK001, 0.01 mM, Table 2, read-out: Cell survival (% of control C, in brackets)): 83.8%
- activity at 2000 µM ([3]; Homo sapiens, HEK2, 2 mM, Table 2, read-out: Cell survival (% of control C, in brackets)): 63.1%
- activity at 50 µM ([3]; Homo sapiens, Keratinocyte, 0.05 mM, Table 2, read-out: Cell survival (% of control C, in brackets)): 103%
- activity at 100 µM ([3]; Homo sapiens, Keratinocyte, 0.1 mM, Table 2, read-out: Cell survival (% of control C, in brackets)): 98.2%
- activity at 500 µM ([3]; Homo sapiens, Keratinocyte, 0.5 mM, Table 2, read-out: Cell survival (% of control C, in brackets)): 81.8%
- activity at 1000 µM ([3]; Homo sapiens, Keratinocyte, 1 mM, Table 2, read-out: Cell survival (% of control C, in brackets)): 74.9%
- activity at 5000 µM ([3]; Homo sapiens, Keratinocyte, 5 mM, Table 2, read-out: Cell survival (% of control C, in brackets)): 60.5%
- Cell survival Avg ± SD (%) ([4]; TXM 13, 0.01 mM): 102.16 ± 10.55%
- Cell survival Avg ± SD (%) ([4]; TXM 13, 0.05 mM): 95.03 ± 10%
- Cell survival Avg ± SD (%) ([4]; TXM 13, 0.1 mM): 96.89 ± 7.99%
- Cell survival Avg ± SD (%) ([4]; TXM 13, 0.5 mM): 90.58 ± 3.8%
- Cell survival Avg ± SD (%) ([4]; TXM 13, 1 mM): 92.34 ± 4.31%
- Cell survival Avg ± SD (%) ([4]; TXM 13, 2 mM): 78.81 ± 6.22%
